Measurements published in US9290457B2, “Substituted dihydropyrimidinones and their use as inhibitors of neutrophil elastase activity” (Boehringer Ingelheim International GmbH, priority 2014, dated 2016).
pIC50: −log10 of the molar value.

What follows are molecules tested against neutrophil elastase (Homo sapiens (Human), UniProt P08246) (assay: Human Neutrophil Elastase Assay). Conditions: substrate MeOSuc-Ala-Ala-Pro-Val-AMC.
Type: biochemical
Experimental: Human Neutrophil Elastase Assay
All other materials were of the highest grade commercially available.
The following buffers were used: Compound buffer: 100 mM Tris, 500 mM NaCl, adjusted to pH 7.5; Assay buffer: 100 mM Tris, 500 mM NaCl, adjusted to pH 7.5, containing 0.01% BSA.
Assay conditions: Test compounds were prediluted in DMSO and subsequently in compound buffer (5% DMSO final). […] After inactivation of the enzyme, fluorescence intensities were measured at 380 nm excitation and 460 nm emission wavelengths.
Each plate contains wells with a high value control (DMSO+enzyme+substrate) and wells with a low value control (DMSO+inactivated enzyme+substrate). IC50 values were estimated using a sigmoidal concentration response curve with variable slope. Means of low values were taken as 0%, means of high values as 100%.

Chain of neutrophil elastase (P08246 30-247): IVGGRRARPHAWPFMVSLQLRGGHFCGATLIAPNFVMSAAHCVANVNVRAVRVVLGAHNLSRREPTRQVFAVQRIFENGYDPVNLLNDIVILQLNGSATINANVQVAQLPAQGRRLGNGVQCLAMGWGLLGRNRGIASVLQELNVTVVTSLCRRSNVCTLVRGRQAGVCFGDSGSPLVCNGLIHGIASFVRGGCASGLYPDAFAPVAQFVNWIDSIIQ

Row | Compound | pIC50
1 | CC(=O)C1=C(C)N(c2cccc(C(F)(F)F)c2)C(=O)N(C)C1c1ccc(C#N)cc1C(=O)NC(C)c1ccco1 (stereo not drawn) [Example 1.51] | 8.85
2 | CC(=O)C1=C(C)N(c2cccc(C(F)(F)F)c2)C(=O)N(C)C1c1ccc(C#N)cc1C(=O)NCc1cncn1C (stereo not drawn) [Example 1.52] | > 9.00
3 | CC(=O)C1=C(C)N(c2cccc(C(F)(F)F)c2)C(=O)N(C)C1c1ccc(C#N)cc1C(=O)NCc1ccnn1C (stereo not drawn) [Example 1.53] | > 9.00
4 | CC(=O)C1=C(C)N(c2cccc(C(F)(F)F)c2)C(=O)N(C)C1c1ccc(C#N)cc1C(=O)NCc1cnn(C)c1 (stereo not drawn) [Example 1.54] | > 9.00
5 | CC(=O)C1=C(C)N(c2cccc(C(F)(F)F)c2)C(=O)N(C)C1c1ccc(C#N)cc1C(=O)NCc1ccn(C)n1 (stereo not drawn) [Example 1.55] | > 9.00
6 | CC(=O)C1=C(C)N(c2cccc(C(F)(F)F)c2)C(=O)N(C)C1c1ccc(C#N)cc1C(=O)N(C)Cc1cn[nH]c1 (stereo not drawn) [Example 1.56] | 9.52
7 | CC(=O)C1=C(C)N(c2cccc(C(F)(F)F)c2)C(=O)N(C)C1c1ccc(C#N)cc1C(=O)NCc1nccn1C (stereo not drawn) [Example 1.57] | > 9.00
8 | CC(=O)C1=C(C)N(c2cccc(C(F)(F)F)c2)C(=O)N(C)C1c1ccc(C#N)cc1C(=O)NCc1cn(C)cn1 (stereo not drawn) [Example 1.58] | > 9.00
9 | CC(=O)C1=C(C)N(c2cccc(C(F)(F)F)c2)C(=O)N(C)C1c1ccc(C#N)cc1C(=O)N(C)Cc1ccon1 (stereo not drawn) [Example 1.59] | > 9.00
10 | CC(=O)C1=C(C)N(c2cccc(C(F)(F)F)c2)C(=O)N(C)C1c1ccc(C#N)cc1C(=O)N(C)Cc1ccno1 (stereo not drawn) [Example 1.60] | > 9.00
11 | CC(=O)C1=C(C)N(c2cccc(C(F)(F)F)c2)C(=O)N(C)C1c1ccc(C#N)cc1C(=O)NCc1nncn1C (stereo not drawn) [Example 1.61] | > 8.89
12 | CC(=O)C1=C(C)N(c2cccc(C(F)(F)F)c2)C(=O)N(C)C1c1ccc(C#N)cc1C(=O)NCc1nnnn1C (stereo not drawn) [Example 1.62] | > 9.00
13 | CC(=O)C1=C(C)N(c2cccc(C(F)(F)F)c2)C(=O)N(C)C1c1ccc(C#N)cc1C(=O)N1CC[C@@H](N(C)C)C1 (stereo partly drawn) [Example 1.63] | 8.74
14 | CC(=O)C1=C(C)N(c2cccc(C(F)(F)F)c2)C(=O)N(C)C1c1ccc(C#N)cc1C(=O)N1CC[C@H](N(C)C)C1 (stereo partly drawn) [Example 1.64] | > 9.00
15 | CCN1CCN(C(=O)c2cc(C#N)ccc2C2C(C(C)=O)=C(C)N(c3cccc(C(F)(F)F)c3)C(=O)N2C)CC1 (stereo not drawn) [Example 1.65] | 8.39
16 | CC(=O)C1=C(C)N(c2cccc(C(F)(F)F)c2)C(=O)N(C)C1c1ccc(C#N)cc1C(=O)N1Cc2ccncc2C1 (stereo not drawn) [Example 1.66] | 8.77
17 | CC(=O)C1=C(C)N(c2cccc(C(F)(F)F)c2)C(=O)N(C)C1c1ccc(C#N)cc1C(=O)NCc1ccc(C#N)o1 (stereo not drawn) [Example 1.67] | 8.89

Row | Compound | pIC50
18 | CC(=O)C1=C(C)N(c2cccc(C(F)(F)F)c2)C(=O)N(C)C1c1ccc(C#N)cc1C(=O)N(C)Cc1ccncc1 (stereo not drawn) [Example 1.68] | > 9.00
19 | CC(=O)C1=C(C)N(c2cccc(C(F)(F)F)c2)C(=O)N(C)C1c1ccc(C#N)cc1C(=O)N1CCn2cncc2C1 (stereo not drawn) [Example 1.69] | > 9.00
20 | CC(=O)C1=C(C)N(c2cccc(C(F)(F)F)c2)C(=O)N(C)C1c1ccc(C#N)cc1C(=O)N1CCn2ccnc2C1 (stereo not drawn) [Example 1.70] | > 9.00
21 | CC(=O)C1=C(C)N(c2cccc(C(F)(F)F)c2)C(=O)N(C)C1c1ccc(C#N)cc1C(=O)N1Cc2cnn(C)c2C1 (stereo not drawn) [Example 1.71] | > 9.00
22 | CC(=O)C1=C(C)N(c2cccc(C(F)(F)F)c2)C(=O)N(C)C1c1ccc(C#N)cc1C(=O)N1CCc2nocc2C1 (stereo not drawn) [Example 1.72] | 8.55
23 | CC(=O)C1=C(C)N(c2cccc(C(F)(F)F)c2)C(=O)N(C)C1c1ccc(C#N)cc1C(=O)N1CCn2cnnc2C1 (stereo not drawn) [Example 1.74] | > 9.00
24 | CC(=O)C1=C(C)N(c2cccc(C(F)(F)F)c2)C(=O)N(C)C1c1ccc(C#N)cc1C(=O)N(C)Cc1nccn1C (stereo not drawn) [Example 1.75] | > 9.00
25 | CC(=O)C1=C(C)N(c2cccc(C(F)(F)F)c2)C(=O)N(C)C1c1ccc(C#N)cc1C(=O)N(C)Cc1ccnn1C (stereo not drawn) [Example 1.76] | > 9.00
26 | CC(=O)C1=C(C)N(c2cccc(C(F)(F)F)c2)C(=O)N(C)C1c1ccc(C#N)cc1C(=O)N(C)Cc1ccn(C)n1 (stereo not drawn) [Example 1.78] | > 9.00
27 | CC(=O)C1=C(C)N(c2cccc(C(F)(F)F)c2)C(=O)N(C)C1c1ccc(C#N)cc1C(=O)N(C)Cc1nncn1C (stereo not drawn) [Example 1.79] | > 9.00
28 | CC(=O)C1=C(C)N(c2cccc(C(F)(F)F)c2)C(=O)N(C)C1c1ccc(C#N)cc1C(=O)N1CCN2CCCC2C1 (stereo not drawn) [Example 1.80] | 8.20
29 | CC(=O)C1=C(C)N(c2cccc(C(F)(F)F)c2)C(=O)N(C)C1c1ccc(C#N)cc1C(=O)N1CCN(C2CC2)CC1 (stereo not drawn) [Example 1.81] | 8.06
30 | CC(=O)C1=C(C)N(c2cccc(C(F)(F)F)c2)C(=O)N(C)C1c1ccc(C#N)cc1C(=O)N1CCN(C(C)C)CC1 (stereo not drawn) [Example 1.82] | 8.57
31 | CC(=O)C1=C(C)N(c2cccc(C(F)(F)F)c2)C(=O)N(C)C1c1ccc(C#N)cc1C(=O)NC1CCN(C(C)C)C1 (stereo not drawn) [Example 1.83] | 8.92
32 | CC(=O)C1=C(C)N(c2cccc(C(F)(F)F)c2)C(=O)N(C)C1c1ccc(C#N)cc1C(=O)NCCN(C)C (stereo not drawn) [Example 1.84] | > 9.00
33 | CCOC(=O)C1=C(C)N(c2cccc(C(F)(F)F)c2)C(=O)N(C)C1c1ccc(C#N)cc1C(=O)N(C)C (stereo not drawn) [Example 3, 4-(4-Cyano-2-dimethylcarbamoyl-phenyl)-3,6-dimethyl-2-oxo-1-(3-trifluoromethyl-phenyl)-1,2,3,4-tetrahydro-pyrimidine-5-carboxylic acid ethyl ester] | > 9.00

The next lines start with the values.

Row | pIC50 | Compound
34 | > 9.00 | CC(=O)C1=C(C)N(c2cccc(C(F)(F)F)c2)C(=O)N(C)C1c1ccc(C#N)cc1C(=O)N1CC[C@@H](N)C1 (stereo partly drawn) [Example 2.10]
35 | > 9.00 | CC(=O)C1=C(C)N(c2cccc(C(F)(F)F)c2)C(=O)N(C)C1c1ccc(C#N)cc1C(=O)N1CC[C@H](N)C1 (stereo partly drawn) [Example 2.11]
36 | > 9.00 | CNCCN(C)C(=O)c1cc(C#N)ccc1C1C(C(C)=O)=C(C)N(c2cccc(C(F)(F)F)c2)C(=O)N1C (stereo not drawn) [Example 2.12]
37 | > 9.00 | CC(=O)C1=C(C)N(c2cccc(C(F)(F)F)c2)C(=O)N(C)C1c1ccc(C#N)cc1C(=O)NCC(C)(C)N (stereo not drawn) [Example 2.13]
38 | 8.27 | CC(=O)C1=C(C)N(c2cccc(C(F)(F)F)c2)C(=O)N(C)C1c1ccc(C#N)cc1C(=O)N1CC2CC1CN2 (stereo not drawn) [Example 2.14]
39 | 8.35 | CC(=O)C1=C(C)N(c2cccc(C(F)(F)F)c2)C(=O)N(C)C1c1ccc(C#N)cc1C(=O)N1CCNC(C)C1 (stereo not drawn) [Example 2.15]
40 | 8.92 | CN[C@H]1CCN(C(=O)c2cc(C#N)ccc2C2C(C(C)=O)=C(C)N(c3cccc(C(F)(F)F)c3)C(=O)N2C)C1 (stereo partly drawn) [Example 2.16]
41 | > 9.00 | CCOC(=O)C1=C(C)N(c2cccc(C(F)(F)F)c2)C(=O)N(C)C1c1ccc(C#N)cc1C(=O)NC1(C#N)CC1 (stereo not drawn) [Example 3.1]
42 | 8.52 | CCOC(=O)C1=C(C)N(c2cccc(C(F)(F)F)c2)C(=O)N(C)C1c1ccc(C#N)cc1C(=O)N1CCN(CC)CC1 (stereo not drawn) [Example 3.2]
43 | 8.52 | CCOC(=O)C1=C(C)N(c2cccc(C(F)(F)F)c2)C(=O)N(C)C1c1ccc(C#N)cc1C(N)=O (stereo not drawn) [Example 3.3]
44 | 8.52 | CCOC(=O)C1=C(C)N(c2cccc(C(F)(F)F)c2)C(=O)N(C)C1c1ccc(C#N)cc1C(=O)NC (stereo not drawn) [Example 3.4]
45 | 8.52 | CCNC(=O)c1cc(C#N)ccc1C1C(C(=O)OCC)=C(C)N(c2cccc(C(F)(F)F)c2)C(=O)N1C (stereo not drawn) [Example 3.5]
46 | 8.52 | C#CCNC(=O)c1cc(C#N)ccc1C1C(C(=O)OCC)=C(C)N(c2cccc(C(F)(F)F)c2)C(=O)N1C (stereo not drawn) [Example 3.6]
47 | 8.52 | CCOC(=O)C1=C(C)N(c2cccc(C(F)(F)F)c2)C(=O)N(C)C1c1ccc(C#N)cc1C(=O)NCC#N (stereo not drawn) [Example 3.7]
48 | 8.52 | CCOC(=O)C1=C(C)N(c2cccc(C(F)(F)F)c2)C(=O)N(C)C1c1ccc(C#N)cc1C(=O)NC1CC1 (stereo not drawn) [Example 3.8]
49 | 8.52 | CCOC(=O)C1=C(C)N(c2cccc(C(F)(F)F)c2)C(=O)N(C)C1c1ccc(C#N)cc1C(=O)N1CCC1 (stereo not drawn) [Example 3.9]
50 | 8.52 | CCOC(=O)C1=C(C)N(c2cccc(C(F)(F)F)c2)C(=O)N(C)C1c1ccc(C#N)cc1C(=O)NCCO (stereo not drawn) [Example 3.10]
51 | > 9.00 | CCOC(=O)C1=C(C)N(c2cccc(C(F)(F)F)c2)C(=O)N(C)C1c1ccc(C#N)cc1C(=O)NCCF (stereo not drawn) [Example 3.11]
52 | > 9.00 | CCOC(=O)C1=C(C)N(c2cccc(C(F)(F)F)c2)C(=O)N(C)C1c1ccc(C#N)cc1C(=O)N1CCCC1 (stereo not drawn) [Example 3.12]
53 | > 9.00 | CCOC(=O)C1=C(C)N(c2cccc(C(F)(F)F)c2)C(=O)N(C)C1c1ccc(C#N)cc1C(=O)N1CC(O)C1 (stereo not drawn) [Example 3.13]
54 | > 9.00 | CCOC(=O)C1=C(C)N(c2cccc(C(F)(F)F)c2)C(=O)N(C)C1c1ccc(C#N)cc1C(=O)NC1COC1 (stereo not drawn) [Example 3.14]
55 | > 9.00 | CCOC(=O)C1=C(C)N(c2cccc(C(F)(F)F)c2)C(=O)N(C)C1c1ccc(C#N)cc1C(=O)NCC(F)F (stereo not drawn) [Example 3.18]
56 | > 9.00 | CCOC(=O)C1=C(C)N(c2cccc(C(F)(F)F)c2)C(=O)N(C)C1c1ccc(C#N)cc1C(=O)NC12CCC1C2 (stereo not drawn) [Example 3.19]
57 | 8.85 | CCOC(=O)C1=C(C)N(c2cccc(C(F)(F)F)c2)C(=O)N(C)C1c1ccc(C#N)cc1C(=O)NC1CCOC1 (stereo not drawn) [Example 3.21]
58 | 8.70 | CCOC(=O)C1=C(C)N(c2cccc(C(F)(F)F)c2)C(=O)N(C)C1c1ccc(C#N)cc1C(=O)N1CCOCC1 (stereo not drawn) [Example 3.22]
59 | 8.89 | CCOC(=O)C1=C(C)N(c2cccc(C(F)(F)F)c2)C(=O)N(C)C1c1ccc(C#N)cc1C(=O)NCC(C)(C)O (stereo not drawn) [Example 3.23]
60 | 9.00 | CCOC(=O)C1=C(C)N(c2cccc(C(F)(F)F)c2)C(=O)N(C)C1c1ccc(C#N)cc1C(=O)N(C)CCOC (stereo not drawn) [Example 3.24]
